From patent US7282599B2, “Dithiocarbamate antiviral agents and methods of using same” (Avir Green Hills Biotechnology Research Devlopment Trade AG, priority 2001, dated 2007) come the findings set out here.

One data set deals with FSME virus (Neudörfel). In words: FSME virus proliferation in suspended cells. It is filed as cell-based. Conditions: same concentrations, 0.975 to 1000 μM. The procedure:
Similarly, we investigated whether PDTC can affect virus proliferation in suspended cells. The same concentrations as above were tested.

The test system of another data set is HRV2. In words: Cell Titer 96 cell proliferation assay, viability of HRV2-infected HeLa cells. Type of data set: cell-based, human rhinovirus. The note with it: HeLa cells, HRV2 20 TCID50/cell, 24 hours after infection, even slight concentrations. The source says: A cell proliferation assay was done to test the effect of PDTC or DDTC on the viability of the cells during a viral infection.

For a further data set, the system named is influenza virus. The data set can be described thus: Mice inoculated intranasally with lethal dose of influenza virus, intranasal treatment. It is filed as in vivo, C57/BL6 mice. Conditions: 25 μl 600 mM PDTC intranasally. The procedure:
Ten C57/BL6 mice were inoculated intranasally with a lethal dose (50 μl 10^7 pfU). One hour later, they were treated intranasally with 25 μl 600 mM PDTC or with 25 μl PBS. The mice were examined and treated every 12 hours for the first 48 hours and then every 24 hours. The weights of the mice were determined and reported in % of the initial weight (% w) (FIG. 11A). […] All the mice treated with PBS (diamonds) died within 12 days after the infection (% s=% surviving).

In another data set the test system is eIF4GI. The data set can be described thus: Western blot of eIF4GI splitting by viral 2A protease in HRV2-infected HeLa cells. It is filed as cell-based, human rhinovirus. Conditions: HRV2 100 TCID50 per cell. As for the experimental part: Various proteolytic activities were determined to examine the course of a rhinoviral infection in the presence and absence of PDTC. Enzymatic splitting of the cellular translation initiation factors 4GI (eIF4GI) and 4GII by viral 2A protease, ending host cell protein synthesis, is one characteristic proteolytic activity that occurs in the course of infection with rhinoviruses and enteroviruses. Depending on the HRV serotype, eIF4G proteins are split in an early stage of infection. Another splitting activity during a rhinoviral infection, only recently described, is splitting of the intermediary filament protein cytokeratin 8. This splitting also depends on the 2A protease, but occurs at a later stage of the infection. In order to investigate the effect of a PDTC treatment on the course of a virus infection, a Western blot analysis was done to analyze these 2A protease substrates.
Medium was removed at the indicated times for the Western blot analysis. The cells were lysed by adding 100 μl of protein buffer (8% sodium dodecyl sulfate, 20% β-mercapto-ethanol, 20% glycerol, 0.04% bromphenol blue). 20 μl protein extract was separated by SDS-PAGE on each track, and blotted onto PVDF membranes. […] The molecular weights were determined by using a prestained SDS-7B marker (Sigma).
Splitting of eIF4GI can be detected 4 hours after infection in HeLa cells infected with HRV2 (100 TCID50 per cell). […]

Data set [1] relates to HRV2, HRV14, HRV1A and HRV16. In words: HRV-induced cytopathic effects (morphology) in HeLa cells. It is filed as cell-based, human rhinovirus. As for the experimental part:
Morphological changes in the cells, called “cytopathic effects” (CPE) occur in the late stages of a rhinoviral infection. These HRV induced CPE are characterized as cell rounding, shrinkage, deformation of the nucleus and chromatin condensation. When HeLa cells are infected with HRV2, HRV14, HRV1A and HRV16 at 100 TCID50 per cell, a distinct cytopathic effect is visible after 8 hours post-infection.
For orientation: Damage to the host cells serves as the signal in cytopathic effect assays.

For data set [2], the system named is influenza A/PR8/34 and influenza A/Vienna/47/96. In words: microbe, parasite or virus in culture. Type of data set: cell-based, influenza A virus.
Data set [3] concerns HRV serotypes 1A, 2, 14 and 16. The data set can be described thus: Virus progeny titer (TCID50 test) in supernatants of HRV-infected HeLa cells. It is filed as cell-based, human rhinovirus. Conditions: 20 TCID50 per cell, PDTC 125 μm. As for the experimental part:
PDTC was added after infection of cells with various HRV serotypes to test the effectiveness during infections by HRV. HeLa cells were infected with HRV serotypes 1A, 2, 14 and 16 with 20 TCID50 (tissue culture infectious dose 50) per cell. PDTC was added at the same time to a concentration of 125 μm in the medium. Excess virus was removed 4 hours after infection, while PDTC was added to the fresh medium. 24 hours (FIG. 1, top) and 48 hours (FIG. 1, bottom) after the infection (p. I.), the supernatants were collected and the amount of virus progeny was determined by TCID50 tests. Treatment of cells with PDTC reduced the virus titer (vt) by 10^3 after 24 hours (FIG. 1, top).

In a further data set the test system is FMV virus O-Manisa. In words: microbe, parasite or virus in culture. It is filed as cell-based, foot and mouth disease virus.
A further data set relates to BHK-21 cells. Conditions: PDTC 0.975 to 1000 μM, 4 days at 37° C.
The next data set deals with A/PR8/34. The data set can be described thus: microbe, parasite or virus in culture. Type of data set: cell-based, influenza A virus. Conditions: 4 days.
The test system of data set [4] is HRC serotypes 1A, 2, 14 and 16. The data set can be described thus: Time of addition, proliferation assay of HRV-infected cells. It is filed as cell-based, human rhinovirus. Conditions: PDTC 125 μM, 20 TCID50 per cell. The procedure:
To determine the stage of the viral life cycle attacked by PDTC, PDTC was added at various times following virus infection with 20 TCID50 per cell, and proliferation assays were done. […] This effect is also not specific for a single serotype, as HRC serotypes 1A, 2, 14 and 16 were used. Only PDTC treatment (125 μM) of the cells more than 8 hours after infection reduced the protective effect.

The subject of a further data set is HeLa cells. The data set can be described thus: Cell proliferation assay on uninfected HeLa cells (toxicity control).

Usually inhibition stands for how much of the control response was suppressed.

A value given as a limit tells only on which side of the number the result lay.

For `S=C(S)N1CCCC1` [PDTC, pyrrolidine dithiocarbamate], the “reduction of virus proliferation in suspended cells” value in the data set with FSME virus (Neudörfel) was “no indication of reduction of virus proliferation”. The “viability of infected cells” value with HRV2 is listed as “significantly increased”. Moreover, the “weight of infected mice” value with influenza virus (7 days after the infection) is listed as “gained weight”. Also, the “survival of infected mice” value in the data set on influenza virus (from one hour after lethal inoculation) was “all the mice treated with PDTC (squares) survived the virus infection”. The “splitting of eIF4GI” value in the data set on eIF4GI (4 and 8 hours after infection) was “No splitting of eIF4GI can be detected”; in the data set with eIF4GI (about 24 hours after infection) it was “slight eIF4GI splitting can be detected”. In addition, the “morphology of infected cells” value in data set [1] (125 μM PDTC, 8 hours after the infection) is “cannot be distinguished from the morphology of non-infected (n. i.) cells”. For the same compound, the “appearance of cytopathic effects” value in [1] (HeLa cells, 100 TCID50 per cell, PDTC added during the infection) was “prevents the appearance of these cytopathic effects”. For the same compound, the EC50 lay in the range of 50 to 100 µM in data set [2] (Influenza A virus, PR8, Vero, 96 h, read-out: PDTC concentration for 50% reduction of positive wells) and 75 to 150 µM with FMV virus O-Manisa (Foot-and-mouth disease virus, 24 h, read-out: concentration range for 50% reduction of infected wells). In addition, the “PDTC concentration for complete inhibition of cytopathic effects” value in [2] (all viruses, vero cells) worked out at 600 µM. Further, the “reduction of the virus titer (vt)” value in data set [3] (supernatants 24 hours after infection) is recorded as 10^3. In addition, the “virus titer in supernatants” value in [3] (supernatants 48 hours after infection) is reported as “significant reduction of the virus titer”. The “protection against the cytopathic effect of the virus” value in the data set on FMV virus O-Manisa (600 μM PDTC, IB-RS-2 cells, 0.1 TCID50 per cell, 24 hours) was determined as 100%. Moreover, the “toxic effects on cell monolayer (microscopic examination)” value in the data set on BHK-21 cells was “no indications of toxic effects”. For the same compound, in the data set on A/PR8/34 (Influenza A virus, PR8, 96 h, PDTC 1200 μM, read-out: inhibition (TCID50 assay)), the inhibition at 1200 µM is over 99.9%. In the data set with A/PR8/34 (PDTC 300 μM), the “reduction of TCID50” value is on record as 76.4%. For the same compound, the “time of PDTC treatment after infection at which the protective effect was reduced” value in data set [4] is “more than 8 hours”. Further, the “time of addition offering the best protection against virus induced loss of proliferation” value in [4] was “within the first six hours after infection”. Besides, the “toxicity of the concentration used to inhibit the viral infections” value with HeLa cells (HeLa cells) is on record as “exhibits no toxicity”. In the data set on HeLa cells (compound alone, uninfected HeLa cells), the “effects on uninfected cells (viability)” value is “only minor effects on uninfected cells”.
